PMC8451604, “Rational formulation engineering of fraxinellone utilizing 6-O-α-D-maltosyl-β-cyclodextrin for enhanced oral bioavailability and hepatic fibrosis therapy” (Drug Delivery, 2021)
≈ marks a conversion by molar mass, not a printed value.

Legend:
[1] = Phase solubility study of Frax with CDs; format: physicochemical; conditions: 37 °C; for solubility at 72 h: aqueous with cosolvent or surfactant or cyclodextrin, thermodynamic from solid; for Frax solubility increase: vs water
Experimental: Frax was excessively mixed with increasing molar concentrations (0–350.00 mM) of each CD aqueous solution. […] The samples were subjected to HPLC analysis after centrifugation (4024.8 g, 10 min). Phase solubility profiles were plotted by monitoring Frax concentration as a function of the molar concentration of each CD. Based on the phase solubility curves, we calculated the apparent stability constants (Kc, L/mol) according to Equation (1): (1) Kc=Slope/S0(1−Slope) where S0 is the water solubility of Frax at equilibrium.

[2] = tested on: Caco-2 cells; experiment: Cytotoxicity in Caco-2 cells (MTT assay); format: cell-based; conditions: Caco-2, concentration increased to 200 μg/mL
Experimental: Cytotoxicity effects and cellular uptake ability of Frax, CDs, and CDs-Frax complexes were examined using Caco-2 cells. […] Each CD solution was also used to determine whether the cell toxicity was caused by Frax or CDs. For cellular uptake studies, Caco-2 cells were treated with Frax and CDs-Frax (100 μg/mL) for 0.5, 1, and 2 h, respectively. For P-gp inhibition evaluation, the cells were pretreated with verapamil at a concentration of 100 μg/mL and further treated with each drug or formulation. Thereafter, the cells were washed and replenished with fresh PBS (300 μL). The cell lysate was prepared by three cycles of freeze-thaw. Protein concentration in the samples was quantified by the BCA kit while the Frax concentration was determined by HPLC.

[3] = In vitro drug release by dialysis method; format: physicochemical; conditions: within 6 h, pH 1.2, 6.8 and 7.4 media, 37 °C
Experimental: In vitro drug release performance was studied by a dialysis method in phosphate buffer (pH 6.8 and 7.4) and 0.1 M HCl (pH 1.2) at 37 °C. Briefly, a certain volume of Frax suspension, SBE-β-CD-Frax, G2-β-CD-Frax, and HP-β-CD-Frax dispersion solution were enclosed in 1500 Da dialysis bags, respectively. The dialysis bag was then transferred and immersed into the release medium under gentle shaking. After 0.5, 1, 1.5, 2, 2.5, 3.5, 4, and 6 h, 1 mL of the release media was aspirated and supplemented with 1 mL of fresh media. The Frax concentration in the samples was analyzed by HPLC. The cumulative drug release (%) was calculated with the following Equation (2) (Chuang et al., [2018]): (2) Drug release (%)=Ve∑1n−1Ci+V0Cn/mFrax where V0 (mL) is the release media volume, Cn (μg/mL) is the drug concentration in the sample, Ve (mL) is the replaced medium volume, and mFrax (mg) is the amount of drug in the sample.

[4] = Oral bioavailability / pharmacokinetic study; parameters: species or system Male Wistar rats; conditions: male, Wistar, rat, in vivo
Experimental: Pharmacokinetic studies were conducted in Male Wistar rats (180–220 g) supplied by the Center of laboratory animals, Zhengzhou University. The Use Committee of Zhengzhou University (IRB0000861) approved the experimental protocol. In addition, all animal experiments were conducted according to the Guidelines of Animal Experimentation of the Laboratory Animal Center. Rats were acclimatized before experiments and provided free access to food and water.
Rats divided into five groups at random (n = 5) were dosed with the following formulations: intravenous administration of Frax ([…]) or orally given Frax suspension (150 mg/kg) or SBE-β-CD-Frax, HP-β-CD-Frax, and G2-β-CD-Frax (150 mg/kg), respectively. Blood (0.4 mL) was obtained by orbital sinus collection at 0.17, 0.25, 0.75, 1, 1.5, 2, 4, 6, 8, and 10 h post-administration. To determine Frax concentration in plasma, 200 μL methanol, 100 μL acetonitrile, and 20 μL 5% hydrochloric acid were added to rat plasma (100 μL) gradually. Following vortexing and centrifugation (4024.8 g, 10 min), the supernatant was collected, dried by air blowing at room temperature, and reconstituted with 150 μL of the mobile phase. The samples were sonicated and vortexed until homogeneity. After centrifugation, the supernatant (50 μL) was aspirated and injected into HPLC. The standard curve encompassed a linear range of 0.05–10 μg/mL and was used to calculate Frax concentration in plasma. Pharmacokinetic parameters were calculated using DAS software version 3.0 and reported as mean ± standard deviation. The oral absolute and relative bioavailability (Fa and Fr) were calculated using the following Equations (3) and (4): (3) Fa(%)=AUC^testDose^i.v/AUC^i.vDose^test (4) Fr(%)=AUCtest/AUCreference where AUC is the area under the pharmacokinetic curves

[5] = Octanol/water partition coefficient (Log P) measurement; format: physicochemical; conditions: octanol/PBS (mutually saturated, equal volumes); pH 1.2, 4.5 and 6.8, 37 °C
Experimental: The mixtures were placed in an air bath shaking at 100 rpm at 37 °C for 24 h. The samples were then centrifuged (12,000 rpm, 10 min) for oil/water phase separation. The drug concentration in these two phases was analyzed by HPLC, respectively.

[6] = tested on: CCl4-induced liver fibrosis mice; experiment: CCl4-induced liver fibrosis, therapeutic efficacy; format: in vivo, Kunming male mice
Experimental: The Kunming male mice (weight of 28–30 g) were divided into 10 groups (n = 10): normal group, CCl4-induced liver fibrosis group, CCl4 induction treated with Frax or G2-β-CD-Frax treatment groups (5, 10, and 20 mg/kg, respectively), CCl4 induction with colchicine (0.2 mg/kg) treatment group, CCl4 induction with G2-β-CD solution treatment (equivalent to 20 mg/kg of G2-β-CD-Frax) group. The mice in the normal group were treated with olive oil only, while the other groups were intraperitoneally injected with 10% CCl4-olive oil every other week for 10 weeks (5 mL/kg for the first dose and 3 mL/kg for the second starting dose). Drug treatment began on the fourth week of modeling and continued every day for 7 weeks. One day after the last administration, blood in all the groups was immediately harvested for assays of AST and ALT. […] were then sacrificed and livers were collected and divided into two parts for histological examination and Hydroxyproline (HYP) assay, respectively.

[7] = oral 5 mg/kg daily for 7 weeks, vs CCl4 group

solubility at 72 h ([1]; 8.82 mM G2-β-CD aqueous solution, with 8.82 mM G2-β-CD): 430 µg/mL (≈ 1850 µM) | solubility at 72 h ([1]; 8.82 mM HP-β-CD aqueous solution, with 8.82 mM HP-β-CD): 330 µg/mL (≈ 1420 µM) | solubility at 72 h ([1]; 8.82 mM SBE-β-CD aqueous solution, with 8.82 mM SBE-β-CD): 600 µg/mL (≈ 2580 µM) | solubility at 72 h ([1]; 8.82 mM β-CD aqueous solution, with 8.82 mM β-CD): 310 µg/mL (≈ 1330 µM) | solubility at 72 h ([1]; 350 mM G2-β-CD aqueous solution, with 350 mM G2-β-CD): 12300 µg/mL (≈ 53000 µM) | solubility at 72 h ([1]; 350 mM HP-β-CD aqueous solution, with 350 mM HP-β-CD): 6550 µg/mL (≈ 28200 µM) | solubility at 72 h ([1]; 350 mM SBE-β-CD aqueous solution, with 350 mM SBE-β-CD): 13600 µg/mL (≈ 58400 µM) | Frax solubility increase ([1]; with 8.82 mM G2-β-CD): 5.45 fold | Frax solubility increase ([1]; with 8.82 mM HP-β-CD): 4.18 fold | Frax solubility increase ([1]; with 8.82 mM SBE-β-CD): 7.61 fold | Frax solubility increase ([1]; with 8.82 mM β-CD): 3.93 fold | Frax solubility increase ([1]; with 350 mM G2-β-CD): 156.19 fold | Frax solubility increase ([1]; with 350 mM HP-β-CD): 83.04 fold | Frax solubility increase ([1]; with 350 mM SBE-β-CD): 171.91 fold | cumulative drug release [3]: < 20% | bioavailability [4]: 0.5% | AUC(0-inf) ([4]; iv, 10 mg/kg): 11800 ± 1430 ng·h/mL | AUC(0-inf) ([4]; po, 150 mg/kg): 970 ± 230 ng·h/mL | Cmax ([4]; po, 150 mg/kg): 490 ± 290 ng/mL | Tmax ([4]; po, 150 mg/kg): 1 ± 0.35 h | logP at 24 h [5]: 3.2 ± 0.17
Structure (SMILES): CC1=C2C(=O)O[C@@H](c3ccoc3)[C@]2(C)CCC1 [Frax, Fraxinellone]
cytotoxicity (in words) [2]: marked cell death | collagen in liver tissue (Masson, Sirius Red staining) [6, 7]: no obvious inhibition | levels of liver fibrosis markers AST, ALT and HYP [6, 7]: no significant decrease | effect on liver fibrosis ([6]; oral 20 mg/kg daily for 7 weeks): rather modest effect
